Source: ChEMBL document CHEMBL5442219

Assays:
Details in all cases: Compound concentration 10 µM
[1] = biological target: Sodium-dependent serotonin transporter (Homo sapiens) (UniProt P31645)
Description: PDSP Primary Binding target: SLC6A4 - Compounds are tested at 10 uM concentration, plate are incubated at room temperature in the dark for 90 minutes. Reaction are stopped by vacuum filtration onto 0.3% polyethyleneimine soaked filter mats using Filtermate harvester. Scintilation cocktail is then melted onto microwave-dried filters on a hot plate and the radio activity is counted in Microbia counter.

[2] = biological target: 5-hydroxytryptamine receptor 5A (Homo sapiens) (UniProt P47898)
Description: PDSP Primary Binding target: HTR5A - Compounds are tested at 10 uM concentration, plate are incubated at room temperature in the dark for 90 minutes. Reaction are stopped by vacuum filtration onto 0.3% polyethyleneimine soaked filter mats using Filtermate harvester. Scintilation cocktail is then melted onto microwave-dried filters on a hot plate and the radio activity is counted in Microbia counter.

[3] = biological target: T1, Muscarinic acetylcholine receptor M2 (Homo sapiens) (UniProt P08172)
T1 sequence (whole entry): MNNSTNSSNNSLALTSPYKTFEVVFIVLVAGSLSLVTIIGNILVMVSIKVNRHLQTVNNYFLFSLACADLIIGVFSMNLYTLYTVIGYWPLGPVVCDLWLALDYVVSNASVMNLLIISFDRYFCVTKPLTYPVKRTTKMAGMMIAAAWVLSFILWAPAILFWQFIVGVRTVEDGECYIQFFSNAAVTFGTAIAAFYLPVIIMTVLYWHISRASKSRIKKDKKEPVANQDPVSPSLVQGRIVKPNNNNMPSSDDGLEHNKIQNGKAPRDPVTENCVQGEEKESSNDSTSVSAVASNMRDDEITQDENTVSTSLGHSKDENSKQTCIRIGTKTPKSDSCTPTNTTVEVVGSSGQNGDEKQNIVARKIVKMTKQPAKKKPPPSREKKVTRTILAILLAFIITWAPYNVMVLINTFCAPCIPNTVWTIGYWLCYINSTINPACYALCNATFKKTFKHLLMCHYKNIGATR
Description: PDSP Primary Binding target: CHRM2 - Compounds are tested at 10 uM concentration, plate are incubated at room temperature in the dark for 90 minutes. Reaction are stopped by vacuum filtration onto 0.3% polyethyleneimine soaked filter mats using Filtermate harvester. Scintilation cocktail is then melted onto microwave-dried filters on a hot plate and the radio activity is counted in Microbia counter.

[4] = biological target: D(3) dopamine receptor (Homo sapiens) (UniProt P35462)
Description: PDSP Primary Binding target: DRD3 - Compounds are tested at 10 uM concentration, plate are incubated at room temperature in the dark for 90 minutes. Reaction are stopped by vacuum filtration onto 0.3% polyethyleneimine soaked filter mats using Filtermate harvester. Scintilation cocktail is then melted onto microwave-dried filters on a hot plate and the radio activity is counted in Microbia counter.

[5] = biological target: T2, 5-hydroxytryptamine receptor 1A (Homo sapiens) (UniProt P08908)
T2 sequence (whole entry): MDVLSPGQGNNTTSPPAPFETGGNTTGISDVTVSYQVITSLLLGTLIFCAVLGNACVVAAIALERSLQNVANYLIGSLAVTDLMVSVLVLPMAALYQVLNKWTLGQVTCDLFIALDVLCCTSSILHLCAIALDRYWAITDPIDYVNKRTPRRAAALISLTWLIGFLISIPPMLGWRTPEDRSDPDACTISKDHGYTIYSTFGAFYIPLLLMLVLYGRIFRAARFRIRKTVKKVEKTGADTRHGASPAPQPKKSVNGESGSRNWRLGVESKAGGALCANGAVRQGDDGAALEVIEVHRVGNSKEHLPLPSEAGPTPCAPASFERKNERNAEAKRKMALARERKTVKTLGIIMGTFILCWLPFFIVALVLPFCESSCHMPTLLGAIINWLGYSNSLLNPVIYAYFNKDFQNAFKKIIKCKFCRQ
Description: PDSP Primary Binding target: HTR1A - Compounds are tested at 10 uM concentration, plate are incubated at room temperature in the dark for 90 minutes. Reaction are stopped by vacuum filtration onto 0.3% polyethyleneimine soaked filter mats using Filtermate harvester. Scintilation cocktail is then melted onto microwave-dried filters on a hot plate and the radio activity is counted in Microbia counter.

[6] = biological target: Translocator protein (Homo sapiens) (UniProt P30536)
Description: PDSP Primary Binding target: TSPO - Compounds are tested at 10 uM concentration, plate are incubated at room temperature in the dark for 90 minutes. Reaction are stopped by vacuum filtration onto 0.3% polyethyleneimine soaked filter mats using Filtermate harvester. Scintilation cocktail is then melted onto microwave-dried filters on a hot plate and the radio activity is counted in Microbia counter.

[7] = biological target: D(2) dopamine receptor (Homo sapiens) (UniProt P14416)
Description: PDSP Primary Binding target: DRD2 - Compounds are tested at 10 uM concentration, plate are incubated at room temperature in the dark for 90 minutes. Reaction are stopped by vacuum filtration onto 0.3% polyethyleneimine soaked filter mats using Filtermate harvester. Scintilation cocktail is then melted onto microwave-dried filters on a hot plate and the radio activity is counted in Microbia counter.

[8] = biological target: 5-hydroxytryptamine receptor 1B (Homo sapiens) (UniProt P28222)
Description: PDSP Primary Binding target: HTR1B - Compounds are tested at 10 uM concentration, plate are incubated at room temperature in the dark for 90 minutes. Reaction are stopped by vacuum filtration onto 0.3% polyethyleneimine soaked filter mats using Filtermate harvester. Scintilation cocktail is then melted onto microwave-dried filters on a hot plate and the radio activity is counted in Microbia counter.

[9] = biological target: Sodium-dependent dopamine transporter (Homo sapiens) (UniProt Q01959)
Description: PDSP Primary Binding target: SLC6A3 - Compounds are tested at 10 uM concentration, plate are incubated at room temperature in the dark for 90 minutes. Reaction are stopped by vacuum filtration onto 0.3% polyethyleneimine soaked filter mats using Filtermate harvester. Scintilation cocktail is then melted onto microwave-dried filters on a hot plate and the radio activity is counted in Microbia counter.

[10] = biological target: Histamine H1 receptor (Homo sapiens) (UniProt P35367)
Description: PDSP Primary Binding target: HRH1 - Compounds are tested at 10 uM concentration, plate are incubated at room temperature in the dark for 90 minutes. Reaction are stopped by vacuum filtration onto 0.3% polyethyleneimine soaked filter mats using Filtermate harvester. Scintilation cocktail is then melted onto microwave-dried filters on a hot plate and the radio activity is counted in Microbia counter.

[11] = biological target: T3, Alpha-2C adrenergic receptor (Homo sapiens) (UniProt P18825)
T3 sequence (whole entry): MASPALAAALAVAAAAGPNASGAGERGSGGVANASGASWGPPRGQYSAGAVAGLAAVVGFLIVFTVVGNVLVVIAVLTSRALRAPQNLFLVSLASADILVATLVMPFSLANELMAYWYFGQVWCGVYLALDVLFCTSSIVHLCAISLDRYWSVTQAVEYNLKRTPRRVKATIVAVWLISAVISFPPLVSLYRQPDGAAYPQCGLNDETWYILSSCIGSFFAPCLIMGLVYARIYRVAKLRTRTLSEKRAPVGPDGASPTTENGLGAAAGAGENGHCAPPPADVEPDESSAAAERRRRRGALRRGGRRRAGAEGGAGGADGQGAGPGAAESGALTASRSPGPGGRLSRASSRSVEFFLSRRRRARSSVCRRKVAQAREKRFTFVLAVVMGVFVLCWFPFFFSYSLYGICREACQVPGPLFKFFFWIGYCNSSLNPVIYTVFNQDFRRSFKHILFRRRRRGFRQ
Description: PDSP Primary Binding target: ADRA2C - Compounds are tested at 10 uM concentration, plate are incubated at room temperature in the dark for 90 minutes. Reaction are stopped by vacuum filtration onto 0.3% polyethyleneimine soaked filter mats using Filtermate harvester. Scintilation cocktail is then melted onto microwave-dried filters on a hot plate and the radio activity is counted in Microbia counter.

[12] = biological target: Sigma non-opioid intracellular receptor 1 (Homo sapiens) (UniProt Q99720)
Description: PDSP Primary Binding target: SIGMAR1 - Compounds are tested at 10 uM concentration, plate are incubated at room temperature in the dark for 90 minutes. Reaction are stopped by vacuum filtration onto 0.3% polyethyleneimine soaked filter mats using Filtermate harvester. Scintilation cocktail is then melted onto microwave-dried filters on a hot plate and the radio activity is counted in Microbia counter.

[13] = biological target: 5-hydroxytryptamine receptor 7 (Homo sapiens) (UniProt P34969)
Description: PDSP Primary Binding target: HTR7 - Compounds are tested at 10 uM concentration, plate are incubated at room temperature in the dark for 90 minutes. Reaction are stopped by vacuum filtration onto 0.3% polyethyleneimine soaked filter mats using Filtermate harvester. Scintilation cocktail is then melted onto microwave-dried filters on a hot plate and the radio activity is counted in Microbia counter.

[14] = biological target: T4, Muscarinic acetylcholine receptor M5 (Homo sapiens) (UniProt P08912)
T4 sequence (whole entry): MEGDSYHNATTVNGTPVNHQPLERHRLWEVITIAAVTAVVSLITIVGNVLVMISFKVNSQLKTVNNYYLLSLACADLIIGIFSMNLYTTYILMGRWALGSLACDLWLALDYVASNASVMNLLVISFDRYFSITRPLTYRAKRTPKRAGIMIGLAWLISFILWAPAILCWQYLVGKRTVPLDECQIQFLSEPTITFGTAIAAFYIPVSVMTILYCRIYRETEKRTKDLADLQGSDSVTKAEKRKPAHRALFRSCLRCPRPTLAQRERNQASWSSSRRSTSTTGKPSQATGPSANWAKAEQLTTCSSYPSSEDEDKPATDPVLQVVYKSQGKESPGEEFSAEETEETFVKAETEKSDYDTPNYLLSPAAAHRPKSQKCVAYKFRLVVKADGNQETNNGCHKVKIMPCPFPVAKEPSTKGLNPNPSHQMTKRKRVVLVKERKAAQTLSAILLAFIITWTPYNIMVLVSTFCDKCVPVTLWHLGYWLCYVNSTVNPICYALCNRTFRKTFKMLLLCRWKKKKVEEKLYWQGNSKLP
Description: PDSP Primary Binding target: CHRM5 - Compounds are tested at 10 uM concentration, plate are incubated at room temperature in the dark for 90 minutes. Reaction are stopped by vacuum filtration onto 0.3% polyethyleneimine soaked filter mats using Filtermate harvester. Scintilation cocktail is then melted onto microwave-dried filters on a hot plate and the radio activity is counted in Microbia counter.

[15] = biological target: Histamine H2 receptor (Homo sapiens) (UniProt P25021)
Sequence of Histamine H2 receptor (Homo sapiens) (P25021 whole entry): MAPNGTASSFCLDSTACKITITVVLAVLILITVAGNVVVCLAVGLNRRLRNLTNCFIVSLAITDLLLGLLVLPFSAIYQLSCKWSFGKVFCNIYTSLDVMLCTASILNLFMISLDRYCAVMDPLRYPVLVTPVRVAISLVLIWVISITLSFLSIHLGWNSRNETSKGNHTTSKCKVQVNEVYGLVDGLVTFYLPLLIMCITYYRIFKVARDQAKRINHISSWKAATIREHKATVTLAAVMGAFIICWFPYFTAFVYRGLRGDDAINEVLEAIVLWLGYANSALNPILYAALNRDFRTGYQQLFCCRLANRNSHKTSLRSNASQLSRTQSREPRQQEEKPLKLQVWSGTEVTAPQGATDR
Description: PDSP Primary Binding target: HRH2 - Compounds are tested at 10 uM concentration, plate are incubated at room temperature in the dark for 90 minutes. Reaction are stopped by vacuum filtration onto 0.3% polyethyleneimine soaked filter mats using Filtermate harvester. Scintilation cocktail is then melted onto microwave-dried filters on a hot plate and the radio activity is counted in Microbia counter.

Sequence of Sodium-dependent dopamine transporter (Homo sapiens) (Q01959 whole entry): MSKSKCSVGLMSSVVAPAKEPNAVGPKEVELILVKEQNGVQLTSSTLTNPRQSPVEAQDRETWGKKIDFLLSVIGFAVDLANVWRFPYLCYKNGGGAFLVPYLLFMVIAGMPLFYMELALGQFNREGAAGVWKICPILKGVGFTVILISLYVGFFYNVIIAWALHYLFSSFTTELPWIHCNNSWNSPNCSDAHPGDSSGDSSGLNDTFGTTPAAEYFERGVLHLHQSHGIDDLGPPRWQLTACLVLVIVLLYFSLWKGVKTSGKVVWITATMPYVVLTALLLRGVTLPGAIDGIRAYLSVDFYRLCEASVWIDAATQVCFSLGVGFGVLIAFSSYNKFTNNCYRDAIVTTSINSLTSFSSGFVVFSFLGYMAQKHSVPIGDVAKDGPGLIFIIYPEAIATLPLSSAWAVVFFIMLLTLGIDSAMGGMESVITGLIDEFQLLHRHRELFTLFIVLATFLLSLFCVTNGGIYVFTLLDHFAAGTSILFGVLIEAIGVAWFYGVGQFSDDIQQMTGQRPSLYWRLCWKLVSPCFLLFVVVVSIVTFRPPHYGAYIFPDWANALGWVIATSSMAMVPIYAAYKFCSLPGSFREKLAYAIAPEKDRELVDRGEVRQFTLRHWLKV
Sequence of Sodium-dependent serotonin transporter (Homo sapiens) (P31645 whole entry, looked up): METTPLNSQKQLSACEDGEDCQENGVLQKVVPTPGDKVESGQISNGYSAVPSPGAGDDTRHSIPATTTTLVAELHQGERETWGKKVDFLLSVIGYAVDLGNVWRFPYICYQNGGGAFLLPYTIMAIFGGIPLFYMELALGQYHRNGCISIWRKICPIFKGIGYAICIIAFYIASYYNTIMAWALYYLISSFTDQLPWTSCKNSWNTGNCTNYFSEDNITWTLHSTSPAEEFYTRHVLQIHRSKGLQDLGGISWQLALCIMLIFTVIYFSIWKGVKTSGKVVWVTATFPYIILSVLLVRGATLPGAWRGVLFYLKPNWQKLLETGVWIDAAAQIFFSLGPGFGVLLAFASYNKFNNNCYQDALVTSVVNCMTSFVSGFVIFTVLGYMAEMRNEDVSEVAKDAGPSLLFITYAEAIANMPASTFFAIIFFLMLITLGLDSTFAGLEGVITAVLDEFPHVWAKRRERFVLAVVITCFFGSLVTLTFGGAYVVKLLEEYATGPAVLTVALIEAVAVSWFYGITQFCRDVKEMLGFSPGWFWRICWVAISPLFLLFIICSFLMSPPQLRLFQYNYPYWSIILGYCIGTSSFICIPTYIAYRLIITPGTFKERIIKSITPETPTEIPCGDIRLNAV
Sequence of D(3) dopamine receptor (Homo sapiens) (P35462 whole entry): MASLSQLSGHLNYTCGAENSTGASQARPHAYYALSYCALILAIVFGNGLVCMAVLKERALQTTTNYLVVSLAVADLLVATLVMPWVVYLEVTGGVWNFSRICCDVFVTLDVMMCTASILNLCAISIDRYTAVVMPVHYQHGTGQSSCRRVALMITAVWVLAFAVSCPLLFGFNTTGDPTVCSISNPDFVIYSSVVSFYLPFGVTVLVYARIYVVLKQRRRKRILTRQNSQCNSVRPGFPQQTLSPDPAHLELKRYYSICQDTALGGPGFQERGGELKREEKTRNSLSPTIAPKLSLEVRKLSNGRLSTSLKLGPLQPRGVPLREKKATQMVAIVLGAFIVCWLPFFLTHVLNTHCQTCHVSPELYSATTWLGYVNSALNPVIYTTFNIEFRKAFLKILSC
Sequence of Sigma non-opioid intracellular receptor 1 (Homo sapiens) (Q99720 whole entry): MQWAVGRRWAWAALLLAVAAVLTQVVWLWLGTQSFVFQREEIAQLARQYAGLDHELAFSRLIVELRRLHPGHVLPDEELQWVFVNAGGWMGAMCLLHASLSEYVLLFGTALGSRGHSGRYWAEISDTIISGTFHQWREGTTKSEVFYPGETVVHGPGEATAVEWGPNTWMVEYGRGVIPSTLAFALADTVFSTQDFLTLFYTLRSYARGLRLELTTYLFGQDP
Sequence of 5-hydroxytryptamine receptor 7 (Homo sapiens) (P34969 whole entry): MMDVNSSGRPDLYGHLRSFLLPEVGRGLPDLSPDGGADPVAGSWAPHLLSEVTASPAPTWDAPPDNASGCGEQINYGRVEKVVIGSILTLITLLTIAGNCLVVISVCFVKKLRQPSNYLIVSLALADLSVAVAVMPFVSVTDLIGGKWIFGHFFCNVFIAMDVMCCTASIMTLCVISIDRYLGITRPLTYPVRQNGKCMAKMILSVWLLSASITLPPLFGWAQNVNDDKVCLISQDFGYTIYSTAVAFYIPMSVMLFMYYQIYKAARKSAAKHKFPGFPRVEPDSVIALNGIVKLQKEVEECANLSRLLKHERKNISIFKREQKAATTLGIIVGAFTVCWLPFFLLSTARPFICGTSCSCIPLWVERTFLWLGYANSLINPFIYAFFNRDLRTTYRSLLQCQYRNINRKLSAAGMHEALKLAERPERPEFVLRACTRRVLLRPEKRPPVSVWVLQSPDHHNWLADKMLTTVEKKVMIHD
Sequence of Histamine H1 receptor (Homo sapiens) (P35367 whole entry): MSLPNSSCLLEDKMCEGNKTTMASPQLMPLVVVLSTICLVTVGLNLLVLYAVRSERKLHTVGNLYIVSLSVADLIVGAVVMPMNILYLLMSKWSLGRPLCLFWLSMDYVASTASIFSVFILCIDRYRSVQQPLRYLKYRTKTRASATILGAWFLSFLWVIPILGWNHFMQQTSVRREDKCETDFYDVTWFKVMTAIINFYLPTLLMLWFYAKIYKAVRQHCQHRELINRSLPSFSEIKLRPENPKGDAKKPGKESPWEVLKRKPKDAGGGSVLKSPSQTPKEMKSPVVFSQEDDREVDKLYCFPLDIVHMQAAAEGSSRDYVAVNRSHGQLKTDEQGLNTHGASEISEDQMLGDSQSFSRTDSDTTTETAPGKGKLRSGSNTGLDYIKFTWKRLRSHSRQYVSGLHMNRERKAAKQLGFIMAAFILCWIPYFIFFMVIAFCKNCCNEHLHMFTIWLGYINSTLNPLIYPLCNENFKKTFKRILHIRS
Sequence of Translocator protein (Homo sapiens) (P30536 whole entry): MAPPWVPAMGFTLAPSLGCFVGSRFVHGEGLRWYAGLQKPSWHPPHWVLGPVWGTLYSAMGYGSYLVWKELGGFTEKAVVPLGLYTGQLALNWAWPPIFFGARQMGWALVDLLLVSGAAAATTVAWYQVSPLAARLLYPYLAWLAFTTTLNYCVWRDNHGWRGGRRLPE
Sequence of 5-hydroxytryptamine receptor 1B (Homo sapiens) (P28222 whole entry): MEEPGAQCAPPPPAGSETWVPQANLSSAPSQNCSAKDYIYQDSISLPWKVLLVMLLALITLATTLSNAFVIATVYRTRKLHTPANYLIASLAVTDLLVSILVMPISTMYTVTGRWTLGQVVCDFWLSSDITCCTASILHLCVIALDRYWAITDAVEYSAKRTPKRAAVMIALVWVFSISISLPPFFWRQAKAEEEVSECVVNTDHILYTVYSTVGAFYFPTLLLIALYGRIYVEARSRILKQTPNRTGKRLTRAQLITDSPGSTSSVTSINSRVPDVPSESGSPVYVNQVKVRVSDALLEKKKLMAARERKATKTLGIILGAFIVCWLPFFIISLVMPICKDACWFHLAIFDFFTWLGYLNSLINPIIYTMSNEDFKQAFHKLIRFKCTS
Sequence of D(2) dopamine receptor (Homo sapiens) (P14416 whole entry): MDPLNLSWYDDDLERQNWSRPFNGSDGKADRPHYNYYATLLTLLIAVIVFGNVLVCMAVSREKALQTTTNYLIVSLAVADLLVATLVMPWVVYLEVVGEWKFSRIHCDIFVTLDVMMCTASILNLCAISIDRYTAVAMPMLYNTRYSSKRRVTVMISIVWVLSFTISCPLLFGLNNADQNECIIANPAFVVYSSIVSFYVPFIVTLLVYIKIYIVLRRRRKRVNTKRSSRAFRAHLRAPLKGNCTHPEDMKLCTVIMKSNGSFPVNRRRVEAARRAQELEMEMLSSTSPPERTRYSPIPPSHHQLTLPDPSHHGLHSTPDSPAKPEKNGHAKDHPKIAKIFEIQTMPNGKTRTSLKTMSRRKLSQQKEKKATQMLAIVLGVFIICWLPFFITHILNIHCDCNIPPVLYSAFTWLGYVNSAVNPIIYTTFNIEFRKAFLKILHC
Sequence of 5-hydroxytryptamine receptor 5A (Homo sapiens) (P47898 whole entry): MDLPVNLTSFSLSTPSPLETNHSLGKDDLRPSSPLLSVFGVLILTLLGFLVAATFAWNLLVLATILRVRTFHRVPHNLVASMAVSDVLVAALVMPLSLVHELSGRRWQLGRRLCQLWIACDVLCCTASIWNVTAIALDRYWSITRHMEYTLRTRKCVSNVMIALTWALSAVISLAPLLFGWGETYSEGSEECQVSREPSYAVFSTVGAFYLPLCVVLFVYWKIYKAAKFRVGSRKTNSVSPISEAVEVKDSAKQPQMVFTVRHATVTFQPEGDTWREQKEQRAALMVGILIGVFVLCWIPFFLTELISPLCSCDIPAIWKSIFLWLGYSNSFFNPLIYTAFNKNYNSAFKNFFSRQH

| SMILES | inhibition [1] | inhibition [2] | inhibition [3] | inhibition [4] | inhibition [5] | inhibition [6] | inhibition [7] | inhibition [8] | inhibition [9] | inhibition [10] | inhibition [11] | inhibition [12] | inhibition [13] | inhibition [14] | inhibition [15] |
| --- | --- | --- | --- | --- | --- | --- | --- | --- | --- | --- | --- | --- | --- | --- | --- |
| COc1ccc(NC(=O)c2ccc(-c3ccc(-c4noc(C)n4)cc3C)cc2)cc1OCCN(C)C | 55.4% | 65.6% | 80.8% | 33.1% | 32.1% | 31.1% | 34.6% | 101% | 86.1% | 22.1% | 79% | 70% | 78.8% | 37.9% | – |
| COc1ccccc1N1CCN(CCCCNC(=O)c2ccc3ccccc3c2)CC1 | 83.7% | 76.4% | 7.22% | – | 108% | 78.8% | 91.8% | 93.2% | 73.9% | 97% | 111% | 90.4% | 102% | 23.2% | – |
| N#Cc1c(O)nc(SCc2cccc(F)c2F)nc1C1CC1 | – | 8.42% | 28.1% | 2.3% | -4.01% | 40.4% | -6.52% | -9.63% | 45.1% | – | 5.91% | 18.2% | – | – | 6.35% |
| O=c1ccc2ccc(OCCCCN3CCN(c4cccc5sccc45)CC3)cc2[nH]1 | 98.2% | 93.1% | -3.44% | 100% | 103% | -2.98% | 104% | 99% | 88.2% | 100% | 104% | – | 101% | 38.2% | – |
| OCc1cc(C(O)CNCCCCCCOCCCCc2ccccc2)ccc1O (stereo unspecified) | 91.4% | 9.07% | 3.27% | 59.6% | 27.8% | -0.39% | 10.9% | 51.1% | 86.5% | 27.7% | 45.6% | – | 97.4% | 60.2% | – |
| NCCc1cn(S(=O)(=O)c2c(Cl)nc3sccn23)c2ccccc12 | 40.4% | 28.4% | 15.1% | 32% | 16.6% | -4.24% | 42.1% | 82.5% | 67.9% | 52.1% | 42.5% | 78.7% | 66.9% | 0.78% | – |
| O=C(O)COc1cccc(CN(Cc2ccc(-n3cccn3)cc2)S(=O)(=O)c2cccnc2)c1 | – | – | – | 5.78% | -0.9% | 11.1% | 7.85% | 12.1% | – | 1.83% | -2.57% | 5.04% | – | -5.22% | 3.71% |
| NC(=O)[C@@H]1CCCN1C(=O)[C@H](Cc1c[nH]cn1)NC(=O)[C@@H]1CCC(=O)N1 | 5.26% | 5.27% | -6.24% | 4.54% | – | 73.2% | -4.39% | 7.27% | 40.9% | 9.67% | 49.8% | 34.1% | -8.14% | 5.07% | – |
| Cc1cc(NC(=O)NCCN2CCC(O)(Cc3ccccc3)CC2)c2ccccc2n1 | 66.3% | 5.79% | 16.1% | 27.4% | -6.82% | 44.3% | 65.3% | 11.5% | 43.9% | 5.97% | 37.3% | 56.9% | 32% | 44% | – |
| CN(C)C(=O)N[C@H]1CC[C@H](CCN2CCN(c3cccc(Cl)c3Cl)CC2)CC1 | 55% | 69.8% | 29.1% | – | 102% | 29% | 100% | 93.7% | 52.5% | 98.7% | 98% | – | 104% | 59.3% | – |
| NCCc1c[nH]c2ccc(C(N)=O)cc12 | 49.3% | 99.4% | 7.09% | 7.17% | 91.4% | – | 55.9% | 101% | 44.6% | -4.09% | 15.4% | 20.2% | 100% | 8.53% | – |
| C[N+]1(C)[C@@H]2C[C@@H](OC(=O)C(O)(c3cccs3)c3cccs3)C[C@H]1[C@@H]1O[C@@H]12 | 30% | 2.25% | 94.2% | 24% | – | 66.3% | 15.2% | 14.9% | -2.43% | 92.1% | -0.27% | 32.7% | -5.44% | 97.4% | – |
| CN1CCN(c2ccc(Nc3c4ccccc4nc4ccccc34)cc2)CC1 | 87.7% | 20.3% | 63.8% | -2.42% | 8.52% | 6% | -0.18% | 30.3% | 62.7% | 54.4% | 105% | 86.4% | 84.4% | 42.3% | – |
| O=C(O)c1cc(-c2ccc(C3CCNCC3)cc2)c2ccc(-c3ccc(C(F)(F)F)cc3)cc2c1 | 4.44% | 69% | 10.7% | 28.9% | 51.4% | 21.7% | 11.9% | 73.7% | 82.5% | 42.8% | 27.2% | 31.5% | 51.5% | 51.9% | – |
